Measured values taken from patent US20240390464A1, “Treatment of Adults With Overweight or Obesity With or Without Weight-Related Comorbidities” (Carmot Therapeutics Inc., priority 2023, published 2024).
“Also recorded” adds a separate entry of the source. Numbered stars: 1 amine (or outer) side, 2 acyl side, 3 side chain; on linkers, the order of the positions; unused ones are H or OH. Square brackets hold non-standard residues; d marks the D form. Side chains are listed from the residue outwards. Peptide text beside a SMILES is read from it. * marks the point of attachment. Isobutyryl(2-(3-CN-5-F-Ph)) = CC(C)(C(=O)*)c1cc(F)cc(C#N)c1; C20 diacid = O=C(O)CCCCCCCCCCCCCCCCCCC(=O)*; γGlu = O=C(O)[C@H](CCC(=O)[*:2])N[*:1]; AEEA = NCCOCCOCC(=O)O; Aib = CC(C)(N)C(=O)O; βAla = NCCC(=O)O

Key:
[1] = Phase 1 MD Cohorts 11 and 12: safety, tolerability, disposition; format: in vivo, human
Method: The primary objective of this study is to determine the safety and tolerability of CT-388 in participants with and without type 2 diabetes mellitus (T2DM) when administered once weekly over 12 consecutive weeks for Cohorts 11 and 14 with titrated dosing (and additionally, up to 24 weeks for Cohorts 12 and 13).
The cohorts in the MD QW study are as follows. • Cohort 11: Once weekly dose administered SC in the abdomen across 12 consecutive weeks with CT-388 or matched placebo doses of 5.0 mg administered for the first 3 weeks and then titrated to 8.0 mg for the duration of the treatment period. If a participant(s) experiences moderate to severe tolerability issues after the third dose of 5 mg, the same 5 mg dose may be continued for up to an additional 2 weeks, i.e., up-titration to 8 mg may be attempted after the fourth or fifth 5 mg dose. If participant(s) still unable to tolerate 8 mg by Day 36, then that participant(s) may continue at 5 mg for the remaining duration of the treatment period. • Cohorts 12 and 13: Once weekly dose administered SC in the abdomen titrated across 12 consecutive weeks with CT-388 or matched placebo doses of: • 5.0 mg at Day 1 and Day 8 • 8.0 mg at Day 15 and Day 22 • 12.0 mg (or 8.0 mg based on tolerability) at Day 29 and Day 36 • 17.0 mg (or 12.0 mg based on tolerability) at Day 43 and Day 50 • 22.0 mg (or 12.0 mg or 17.0 mg based on tolerability) at Day 57. • If at 22 mg on Day 57, continue that dose for the duration of the treatment period. • If at 12 mg or 17 mg on Day 57, titration to the corresponding next higher dose level may be attempted on a weekly basis based on the individual's tolerability (e.g., if on Day 57, 12 mg dose was administered and tolerated, on Day 64, dose of 17 mg may be attempted). • If not able to tolerate, continue at the previously tolerated dose level until the following week (e.g., to Day 71), at which point another attempt can be made to the next higher dose level. • Attempts to the next higher dose level can continue to be made until Day 78. The dose level achieved at Day 78 should be maintained for an additional 12 weeks of weekly dosing in the extension period, resulting in a cumulative of 24 weeks of total doses for participants in Cohorts 12 and 13. At any time during the extension period, if the maintenance dose is not tolerated, then that dose may be either lowered by one corresponding dose level (e.g., if at 22 mg, decrease to 17 mg; if at 17 mg decrease to 12 mg), and/or the dosing may be withheld for up to 2 weeks. Following this temporary dose adjustment/withholding period, attempt to titrate back up to the previous (higher) dose level should be made. […]

[2] = Phase 1 MD Cohorts 11 and 12: pharmacokinetics; conditions: human, in vivo, SC QW
Source text: The secondary objectives of this study are: • To evaluate the pharmacokinetics of CT-388 across 12 consecutive weekly doses for Cohorts 11 and 14 (and additionally, up to 24 weeks for Cohorts 12 and 13); and • To evaluate the PD effect of CT-388 across 12 consecutive weekly doses for Cohorts 11 and 14 (and additionally up to 24 weeks for Cohorts 12 and 13) on body weight and glucose homeostasis in both the fasted state and in the setting of an OGTT in participants with or without T2DM. […] Cohorts 11 and 12 included participants who were obese without T2DM and cohort 13 included patients who were obese with T2DM. Endpoints of this study were safety, including TEAEs, labs, vitals and ECGs; PK, including CT-388 PK concentrations and parameters; and key PD endpoints, including week 12 ([…]) and week 24 ([…]): • a. body weight: % change; absolute change; • b. change in HbA1c, fasting glucose, fasting insulin, HOMA-IR; and • c. waist and hip circumference.

[3] = Cohort 12, planned target 22 mg

Compound: CC[C@H](C)[C@H](NC(=O)[C@H](CC(C)C)NC(=O)[C@H](Cc1c[nH]c2ccccc12)NC(=O)[C@H](CCC(N)=O)NC(=O)[C@@H](NC(=O)[C@H](Cc1ccccc1)NC(=O)[C@H](C)NC(=O)[C@H](CCCCNC(=O)COCCOCCNC(=O)COCCOCCNC(=O)CC[C@H](NC(=O)CCCCCCCCCCCCCCCCCCC(=O)O)C(=O)O)NC(=O)[C@H](CCC(N)=O)NC(=O)[C@H](C)NC(=O)[C@@H](NC(=O)[C@H](CCCCN)NC(=O)[C@H](CC(=O)O)NC(=O)[C@H](CC(C)C)NC(=O)C(C)(C)NC(=O)[C@@H](NC(=O)[C@H](CO)NC(=O)[C@H](Cc1ccc(O)cc1)NC(=O)[C@H](CC(=O)O)NC(=O)[C@H](CO)NC(=O)[C@@H](NC(=O)[C@H](Cc1ccccc1)NC(=O)[C@@H](NC(=O)CNC(=O)[C@H](CCC(=O)O)NC(=O)CCNC(=O)C(C)(C)c1cc(F)cc(C#N)c1)[C@@H](C)O)[C@@H](C)O)[C@@H](C)CC)[C@@H](C)CC)C(C)C)C(=O)N[C@@H](C)C(=O)NCC(=O)NCC(=O)N1CCC[C@H]1C(=O)N[C@@H](CO)C(=O)N[C@@H](CO)C(=O)NCC(=O)N[C@@H](C)C(=O)N1CCC[C@H]1C(=O)N1CCC[C@H]1C(=O)N1CCC[C@H]1C(=O)N[C@@H](CO)C(N)=O [CT-388] ({Isobutyryl(2-(3-CN-5-F-Ph))-βAla}-EGTFTSDYSI[Aib]LDKIAQK([AEEA-AEEA-γGlu-C20 diacid])AFVQWLIAGGPSSGAPPPS-NH2)
- SAEs or severe treatment related GI-related AEs ([1]; CT-388 participants, up to 24 weeks): No SAEs or severe treatment related GI-related AEs; also recorded: No SAEs or severe treatment related GI-related TEAE
- patients dosed per planned path and completed treatment on 22 mg [1, 3]: 75%
- patients with dose down-titration who completed treatment on 12 mg [1, 3]: 25%
- safety and tolerability ([1]; up to 24 weeks of treatment, up to 22 mg SC QW): generally safe and well-tolerated
- half-life [2]: ~6.25 days
